Values belong to the molecule of their own block, whether it stands above or below them.
Key:
[1] = Relaxivity measurements (r1 from relaxation times T1/T2, Minispec 120); type: physicochemical
Procedure: […] The longitudinal relaxation time T1 is measured using an inversion recovery sequence and the transverse relaxation time T2 is measured by a CPMG technique.
The relaxation rates R1 (=1/T1) and R2 (=1/T2) were calculated for different total metal concentrations (varying from 0.1×10^−3 to 1×10^−3 mol/l) in aqueous solution at 37° C. The correlation between R1 or R2 as a function of the concentration is linear and the slope represents the relaxivity r1 (RUC) or r2 (R2/C) expressed as (1/second)×(1/mmol/l), i.e. mM^−1·s^−1.
The compounds were prepared in different media: water, NaCl, citrate, phosphate, carbonate, cocktail of ions.

[2] = Osmolality (Wescor 5220 tonometer); type: physicochemical; details: at administration dose of the product in man (500 mM; Gadovist 1000 mM)
[3] = system: C6 glioma; assay: In vivo MRI imaging study, detection of C6 glioma in rat; details: 0.1 mmol/kg, 2.35 T
Procedure: Compounds II (example 2) was compared to Dotarem® ans MultiHance(® for the detection of C6 glioma in rat (n=6/product). Each animal received all the three products at the same dose (0.1 mmol/kg) in a random order. A minimal delay of 4 hours has been respected between the injections in order to avoid remaining contrast from the previous injection. Enhancement was follow-up during 30 min with a T1w-Spin Echo sequence (TR/TE=498/14.2 ms, FOV=4×4 cm2, slice thickness 2 mm, interslice distance 3 mm, 192×192 matrix, 2 accumulation) on a 2.35 T system (BioSpec 24/40, Bruker, Germany). Enhancement of the lesions have been quantitatively (ROIs) and qualitatively (blinded cotation) evaluated. […] However among the three contrast agents, compound II induced a 2 fold-more pronounced contrast between the lesion and the healthy brain.

SMILES: O=C(O)C(CCO)N1CCN(C(CCO)C(=O)O)Cc2cccc(n2)CN(C(CCO)C(=O)O)CC1 (stereo not shown) [Comparative Example 9]
relaxivity ([1]; field not stated): 6
Relaxivity r1 in water (mM − 1s − 1) at 0.5 T [1]: 6 mM − 1s − 1

SMILES: CNC[C@H](O)[C@@H](O)[C@H](O)[C@H](O)CO.O=C([O-])CN1CCN(CC(=O)[O-])CCN(CC(=O)O)CCN(CC(=O)[O-])CC1.[Gd+3] [Dotarem ®]
Relaxivity r1 at 60 MHz in water [1]: 3.5 mM⁻¹ s⁻¹
Osmality (mOsm/kg) [2]: 1350 mOsm/kg
depiction of the lesions [3]: All the lesions have been depicted

SMILES: CNC[C@H](O)[C@@H](O)[C@H](O)[C@H](O)CO.CNC[C@H](O)[C@@H](O)[C@H](O)[C@H](O)CO.O=C([O-])CN(CCN(CC(=O)[O-])CC(=O)O)CCN(CC(=O)O)C(COCc1ccccc1)C(=O)[O-].[Gd+3] (stereo not shown) [MultiHance]
depiction of the lesions [3]: All the lesions have been depicted

More lines, now with the values ahead:

Relaxivity r1 in water (mM − 1s − 1) at 0.5 T [1]: 6.2 mM − 1s − 1
SMILES: O=C(O)CCC(C(=O)O)N1CCN(C(CCC(=O)O)C(=O)O)CCN(C(CCC(=O)O)C(=O)O)CCN(C(CCC(=O)O)C(=O)O)CC1 (stereo not shown)

Osmality (mOsm/kg) [2]: 1400 mOsm/kg
SMILES: O=C([O-])CN1CCN(CC(=O)[O-])CCN([C@H](CO)[C@H](O)CO)CCN(CC(=O)[O-])CC1.[Gd+3] (racemic) [Gadovist ® (1M)]

Relaxivity r1 at 60 MHz in water [1]: 3.5 mM⁻¹ s⁻¹
Osmality (mOsm/kg) [2]: 1950 mOsm/kg
SMILES: CNC[C@H](O)[C@@H](O)[C@H](O)[C@H](O)CO.CNC[C@H](O)[C@@H](O)[C@H](O)[C@H](O)CO.O=C([O-])CN(CCN(CC(=O)[O-])CC(=O)O)CCN(CC(=O)[O-])CC(=O)O.[Gd+3] [Magnevist ®]

relaxivity at 20 MHz ([1]; 20 MHz): 14.7 mM^−1s^−1 Gd^−1
relaxivity at 40 MHz ([1]; 40 MHz): 12.8 mM^−1s^−1 Gd^−1
relaxivity at 300 MHz ([1]; 300 MHz): 10.4 mM^−1s^−1 Gd^−1
SMILES: O=C(CCCC(C(=O)O)N1CCN(C(CCCC(=O)NCC(O)CO)C(=O)O)Cc2cccc(n2)CN(C(CCCC(=O)NCC(O)CO)C(=O)O)CC1)NCC(O)CO (stereo not shown) [complex 7]

— patent US8114863B2, “Compounds comprising short aminoalcohol chains and metal complexes for medical imaging” (Guerbet, priority 2005, dated 2012)
